What was measured:
[1] = Pharmacokinetic study in rats after oral administration of PbR extract; type: in vivo, rat; conditions: for AUC(0-inf) / AUC(0-t) / Cmax / MRT inf / MRT last / Tmax / half-life: male, Wistar, plasma, po, 5 g/kg; for AUC(0-inf) / AUC(0-t) / Cmax / MRT inf / MRT last / Tmax / half-life / absorption characteristics: rat; for absorption characteristics: oral administration of PbR
[2] = Stability of analytes in rat plasma samples; type: in vitro ADME; conditions: three freeze–thaw (−80 °C–room temperature) cycles, low, medium and high QC samples

## COC(=O)C1=CO[C@@H](O[C@@H]2O[C@H](CO)[C@@H](O)[C@H](O)[C@H]2O)[C@H]2[C@@H]1[C@H](O)C[C@]2(C)OC(C)=O [barlerin]
[1]
  AUC(0-inf): 63.2 ± 17.4 ng·h/mL
  AUC(0-t): 55.1 ± 15.5 ng·h/mL
  Cmax: 24.4 ± 8.4 ng/mL
  MRT inf: 4.65 ± 1.43 h
  MRT last: 3.12 ± 0.64 h
  Tmax: 0.33 ± 0.13 h
  half-life: 3.33 ± 1.21 h
  absorption characteristics: good absorption characteristics
[2]
  freeze–thaw stability in plasma samples: No significant degradation

## C[C@@H]1O[C@@H](O[C@@H]2[C@@H](O)[C@H](OCCc3ccc(O)c(O)c3)O[C@H](COC(=O)/C=C/c3ccc(O)c(O)c3)[C@H]2O)[C@H](O)[C@H](O)[C@H]1O [isoacteoside]
[1]; after oral administration of PbR at a dose of 0.5 g/100 g
  detection in rat plasma: neither of these were detected

## COC(=O)C1=CO[C@@H](O[C@@H]2O[C@H](CO)[C@@H](O)[C@H](O)[C@H]2O)[C@H]2[C@@H]1[C@H](O)C[C@]2(C)O [shanzhiside methyl ester]
[1]
  AUC(0-inf): 159 ± 34.2 ng·h/mL
  AUC(0-t): 141 ± 33.4 ng·h/mL
  Cmax: 41.6 ± 13.8 ng/mL
  MRT inf: 5.28 ± 0.73 h
  MRT last: 3.84 ± 0.61 h
  Tmax: 0.7 ± 0.14 h
  half-life: 3.59 ± 1.05 h
  absorption characteristics: good absorption characteristics
[2]
  freeze–thaw stability in plasma samples: No significant degradation

Source: publication PMC7893793 (ACS Omega, 2021)
